According to patent US20180271470A1, “METHODS FOR QUANTIFYING PANCREATIC BETA CELL FUNCTION AND MASS PROPERTIES WITH RADIOMANGANESE POSITRON EMISSION TOMOGRAPHY” (Wisconsin Alumni Research Foundation, priority 2017, published 2018):
One block for each molecule: values may come before it.

Experiments:
[1] = [^18F]-FDG study; cited from earlier work
[2] = mice, other studies; cited from earlier work
[3] = Ex vivo ^51Mn biodistribution by gamma counting; assay type: in vivo, ICR mice; conditions: awake I.V. bolus, gamma counting after 1 h PET
Method: (§1) All animal studies were conducted under a protocol approved by the University of Wisconsin Institutional Animal Care and Use Committee. Non-fasted healthy ICR mice (Envigo, Indianapolis, Ind.) were divided into two groups. Mice in the first group (n=2) were anaesthetized by isoflurane (4% induction, 1% maintenance), tail-vein catheters were affixed, and mice were placed on the microPET/CT bed in a prone position (Inveon, Siemens Preclinical Solutions, Knoxville, Tenn.). Dynamic PET acquisition was started and ^51Mn^2+ was administered in a rapid bolus (3.3 MBq, 200 μl, 10% 0.01 M NaOAc/90% PBS) through the tail-vein catheter. Sixty minutes of dynamic PET data were acquired following ^51Mn^2+ administration. Due to the impact of volatile anesthetics on voltage-dependent calcium channel (VDCC) activation, the second group (n=3) received an intravenous (I.V.) bolus of ^51Mn^2+ (1.6 MBq, 200 μL, 10% 0.01 M NaOAc/90% PBS) while awake. 60 minutes post-injection mice were anaesthetized by isoflurane and a 10 minute static PET scan acquired. Following imaging, mice were immediately sacrificed by CO2 asphyxiation, and organs were extracted. Ex vivo biodistribution measurements were performed by gamma counting (Wizard 2480, PerkinElmer, Waltham, Mass.).

[4] = OLINDA dosimetry calculations for Mn-51 and daughter Cr-51; set-up: species or system human; conditions: OLINDA input
Method: Due to the rapid blood clearance of Mn^2+, OLINDA (Organ Level INternal Dose Assessment) dosimetry calculations were performed assuming instant compartment localization with organ activity fractions equal to those measured by ex vivo biodistribution herein. Based on the previously measured lengthy organ residence times of Mn^2+, it was also assumed that the effective organ clearance half-life (Ter) was equal to the radioactive half-life of Mn-51 (t1/2: 45.6 min). It was also assumed that Mn-51 injections were 100% radionuclidically pure. In regards to the daughter isotope, Cr-51 (t1/2: 27.7 d), it was assumed that the activity remained in same organ compartments as the parent Mn-51 biodistribution without biological clearance. Standard radiation weighting factors were used (γ=1, β=1). Based on these assumptions, effective dose (ED) and effective dose equivalent (EDE) (units of mSv/MBq) were calculated for a standard adult male and female.

[5] = Static PET of ^51Mn^2+ injected in awake mice; assay type: in vivo, ICR mice; conditions: I.V. bolus non-anaesthetized, n=3, PET 60 minutes post-injection
Method: as §1, with “Mass.). […]” for “Mass.).”

[6] = Dynamic PET of ^51Mn^2+ rapid IV bolus under isoflurane; assay type: in vivo, ICR mice
Method: as §1
Dynamic PET data were binned into […] (12×5 s, 6×10 s, 6×30 s, 6×150 s, 6×300 s) and frames were reconstructed using non-scatter-corrected 3D ordered-subset expectation maximization followed by maximum a posteriori reconstruction (OSEM3D/MAP). Static PET data were reconstructed into a single frame by OSEM3D/MAP.

Molecule: OC[C@H]1OC(O)[C@H]([18F])[C@@H](O)[C@@H]1O (some centres unmarked) [[^18F]-FDG]
average dose for a study [1]: 14.1 mSv

Molecule: [63Zn+2] [^63Zn^2+]
pancreatic uptake [2]: significant

Mn-51 uptake in heart, ex vivo biodistribution [3]: 5.6±1.8 SUV
Mn-51 uptake in kidneys, ex vivo biodistribution [3]: 9.2±0.7 SUV
Mn-51 uptake in pancreas, ex vivo biodistribution [3]: 7.0±1.3 SUV
Number of disintigrations, Total Body ([4]; Total Body): 8.70E−01 MBq-h/MBq
Number of disintigrations, Adrenals ([4]; source organ Adrenals): 0.00E+00 MBq-h/MBq
Number of disintigrations, Brain ([4]; source organ Brain): 4.43E−03 MBq-h/MBq
Number of disintigrations, Breasts ([4]; source organ Breasts): 0.00E+00 MBq-h/MBq
Number of disintigrations, Cortical Bone ([4]; source organ Cortical Bone): 8.40E−04 MBq-h/MBq
Number of disintigrations, Gallbladder Contents ([4]; source organ Gallbladder Contents): 0.00E+00 MBq-h/MBq
Number of disintigrations, Heart Contents ([4]; source organ Heart Contents): 0.00E+00 MBq-h/MBq
Number of disintigrations, Heart Wall ([4]; source organ Heart Wall): 2.37E−02 MBq-h/MBq
Number of disintigrations, Kidneys ([4]; source organ Kidneys): 6.91E−02 MBq-h/MBq
Number of disintigrations, LLI ([4]; source organ LLI): 0.00E+00 MBq-h/MBq
Number of disintigrations, Liver ([4]; source organ Liver): 6.30E−02 MBq-h/MBq
Number of disintigrations, Lungs ([4]; source organ Lungs): 1.68E−02 MBq-h/MBq
Number of disintigrations, Muscle ([4]; source organ Muscle): 2.18E−03 MBq-h/MBq
Number of disintigrations, Ovaries ([4]; source organ Ovaries): 0.00E+00 MBq-h/MBq
Number of disintigrations, Pancreas ([4]; source organ Pancreas): 4.11E−02 MBq-h/MBq
Number of disintigrations, Red Marrow ([4]; source organ Red Marrow): 0.00E+00 MBq-h/MBq
Number of disintigrations, Small Intestine ([4]; source organ Small Intestine): 0.00E+00 MBq-h/MBq
Number of disintigrations, Spleen ([4]; source organ Spleen): 9.16E−03 MBq-h/MBq
Number of disintigrations, Stomach ([4]; source organ Stomach): 0.00E+00 MBq-h/MBq
Number of disintigrations, Testes ([4]; source organ Testes): 0.00E+00 MBq-h/MBq
Number of disintigrations, Thymus ([4]; source organ Thymus): 0.00E+00 MBq-h/MBq
Number of disintigrations, Thyroid ([4]; source organ Thyroid): 0.00E+00 MBq-h/MBq
Number of disintigrations, Trabecular Bone ([4]; source organ Trabecular Bone): 0.00E+00 MBq-h/MBq
Number of disintigrations, ULI ([4]; source organ ULI): 6.42E−03 MBq-h/MBq
Number of disintigrations, Urinary Bladder Contents ([4]; source organ Urinary Bladder Contents): 0.00E+00 MBq-h/MBq
Number of disintigrations, Uterus/Uterine Wall ([4]; source organ Uterus/Uterine Wall): 0.00E+00 MBq-h/MBq
kidney uptake, static PET subjects [5]: 7.7±1.1 SUV
kidney uptake, anaesthetized dynamic PET subjects ([6]; I.V. bolus under isoflurane, n=2): 13.7±2.6 SUV
duration of initial distribution ([6]; rapid IV bolus, dynamic PET): < 1 min
heart blood-pool clearance half-life ([6]; rapid IV bolus, heart TAC 0.375 to 3.25 minutes post-injection): 7.7 ± 0.7 s
Molecule: ^51MnCl2 [Mn-51]
